We go through two compounds from patent publication US20180116999A1, “METHODS OF TREATING FIBROTIC DISEASES USING TETRAHYDROCANNABINOL-11-OIC ACIDS” (Corbus Pharmaceuticals, Inc., priority 2011, published 2018).

For series [1], the system named is bleomycin-induced dermal fibrosis in DBA/2J mice. Kind of series: Bleomycin-induced dermal fibrosis. In kind it is in vivo. The protocol:
Skin fibrosis was induced in two groups of 6-week old DBA/2J mice by local injection of bleomycin. Briefly, 100 microliter of BLM dissolved in 0.9% NaCI at a concentration of 0.5 mg/ml were administered every other day, in well defined areas (1 cm^2) of the upper back. One group of BLM-challenged mice received orally AjA 1 mg/kg/day, dissolved in seed oil. Subcutaneous injections of 100 ul 0.9% NaCI were used as controls. After 21 days, animals were killed by cervical dislocation. The injected skin was removed and processed for analysis. Each treatment group consisted of eight mice. The local ethical committee approved all animal experiments. […].
Three lesional skin samples were taken from every animal of each group and 5 μm skin sections (three for each skin sample) were stained with haematoxylin and eosin. Dermal thickness was calculated at 10× microscopic magnification by measuring the distance between the dermal—epidermal junction and the dermal—subcutaneous fat junction (micrometer) in five randomly selected fields for each skin section. Results were expressed as mean±SD. Two different examiners performed the evaluation blindly.
The collagen content of lesional skin was evaluated by colourimetric quantification of hydroxyproline on three different skin biopsies (3 mm punch) taken from every animal in each group. 15 Absorbencies were measured at 560 nm in triplicate. The results were expressed as μg of hydroxyproline per biopsy (mean±SD).
Skin sections (5 μm) were processed in order to evaluate expression of a smooth muscle actin (α-SMA) (mouse monoclonal antibody) (Santa Cruz Biotechnology, Santa Cruz, Calif., USA) After deparaffinization, skin sections were incubated with 3% bovine serum albumin for 30 minutes to block nonspecific binding, followed by incubation with 3% H2O2 for 5 minutes to block endogenous peroxidase activity. A-SMA staining was performed according to the protocol of manufacturer using M.O.M kit (Vector, UK). Staining was visualized with diaminobenzidine, using a peroxidase substrate kit (Dako, Glostrup Denmark). Cell counts were performed blindly by two different operators, at 40× magnification, in five non-contiguous microscope fields of three sections from each lesional skin sample. Results are expressed as mean±SD of positive spindle-shaped fibroblastic cells per field.

A further series deals with SSc fibroblasts. As to the kind of experiment: Collagen (PIP) concentration in supernatant of SSc fibroblasts. The format is cell-based, human. The note with it: for reversal of AjA inhibitory effect on PIP/collagen production by PPAR-γ antagonist: antagonist 10 μM, pre-incubation 15 minutes before AjA.
The subject of series [2] is SSc and healthy fibroblasts. Kind of series: Cell viability (MTT assay). The format is cell-based, human. Particulars: AjA in concentrations up to 10 pM (so in the source), 24 hours, data not shown. The protocol:
SSc and healthy fibroblasts were plated at a density of 100000 cells/well in 24 well plate and treated with AjA at concentrations of 0.1, 1, 5 and 10 μM for 24 hours in presence or absence of GW9662 at concentrations of 1 and 10 μM. Cell metabolic activity was measured by 3-(4,5-dimethylthiazol-2-yl)-2,5-diphenyltetrazolium bromide (MTT) assay. After removal of 100 μl of the growth medium, MTT was added at a final concentration of 3 mg/ml, and the cells were incubated at 37° C. for an additional 4 hours. Formazan crystals were dissolved in DMSO and optical density was measured at 570 nm using a spectrophotometer.

The next series concerns PPAR-γ. Kind of series: PPAR-γ expression by Western blot in SSc fibroblasts. Particulars: AjA 5 microM and 10 microM. The format is cell-based, human. The protocol:
(§1) SSc and healthy dermal fibroblasts were cultured in DMEM containing 2.5% of fetal calf serum (FCS) for 24 hours before the experiments. Dermal fibroblasts were incubated with AjA (JB Therapeutics, Newton, Mass., USA), dissolved in dimethyl sulfoxide at 0.1, 1, 5 and 10 microM concentrations for 24 hours. Experiments with the PPAR-γ irreversible antagonist GW9662 (Tocris Bioscience, Bristol, UK), 1 and 10 microM, were performed by incubating dermal fibroblasts for 15 minutes before AjA treatment.
After rinsing twice with PBS, cells were lysed with Ripa buffer (Santa Cruz Biotechnology, Santa Cruz, Calif., USA). Subsequently, cell lysates were incubated on ice for 30 minutes and centrifuged at 14,000 g for 20 minutes. Protein concentrations were measured using the Bradford assay (Bio-Rad, Reinach, Switzerland). […] After incubation with horseradish peroxidase (HRP)-conjugated donkey anti-goat antibodies Santa Cruz Biotechnology) at a dilution of 1:10000 for 45 minutes, signals were detected with ECL Western Blotting Detection Reagents (Amersham Bioscience, Freiburg, Germany) and exposure to x-ray film (SuperRX; Fuji, Dusseldorf, Germany). For confirmation of equal loading of proteins, the amount of alpha-tubulin was determined using mouse anti-human a-tubulin antibodies (dilution 1:1,000; Sigma) and HRP-conjugated rabbit anti-mouse antibodies (dilution 1:5000; Santa Cruz). […]
A general note: In western blotting, separated proteins are transferred to a membrane and probed.

A further series deals with 15d-PGJ2. Kind of series: 15d-PGJ2 supernatant levels (ELISA) of SSc fibroblasts. The format is cell-based, human. The note with it: incubation with AjA. The protocol:
as §1
(§2) The supernatant was collected and stored at −20° C. prior to and after AjA±GW9662 treatment. An EIA kit (Takara Bio, Otsu, Japan) and ELISA kit (Euroclone, Lugano, Switzerland) were used to assess the procollagen type I carboxy-terminal peptide (PIP) and TGF-β and PGJ2 supernatant levels, respectively. Results are mean±SD of five separate experiments.

For a further series, the system named is TGF-beta. As to the kind of experiment: TGF-beta supernatant levels (ELISA) of SSc fibroblasts. In kind it is cell-based, human. The protocol:
as §1, §2
In general terms: ELISA stands for enzyme-linked immunosorbent assay.

The test system of series [3] is bleomycin-induced lung fibrosis. Kind of series: Bleomycin lung fibrosis, Day 21 histology of lung. The format is in vivo.
Another series deals with CB1 receptor (Homo sapiens, UniProt P21554). Particulars: cited from earlier work.
Sequence of CB1 receptor (P21554 whole entry): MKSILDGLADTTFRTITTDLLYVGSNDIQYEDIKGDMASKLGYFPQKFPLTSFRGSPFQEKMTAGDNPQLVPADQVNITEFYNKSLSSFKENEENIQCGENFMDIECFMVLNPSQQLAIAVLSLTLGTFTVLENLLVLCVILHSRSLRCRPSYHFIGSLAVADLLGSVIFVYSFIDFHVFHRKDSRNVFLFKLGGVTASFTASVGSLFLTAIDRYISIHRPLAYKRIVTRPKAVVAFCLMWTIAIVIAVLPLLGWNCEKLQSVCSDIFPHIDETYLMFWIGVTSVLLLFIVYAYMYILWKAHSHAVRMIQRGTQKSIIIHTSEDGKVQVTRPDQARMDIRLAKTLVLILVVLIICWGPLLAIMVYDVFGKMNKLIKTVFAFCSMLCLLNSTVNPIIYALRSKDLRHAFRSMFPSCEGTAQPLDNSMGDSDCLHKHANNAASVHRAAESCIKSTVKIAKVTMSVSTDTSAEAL
The target of the next series is CB2 receptor (Homo sapiens, UniProt P34972). Particulars: cited from earlier work.
Sequence of CB2 receptor (P34972 whole entry): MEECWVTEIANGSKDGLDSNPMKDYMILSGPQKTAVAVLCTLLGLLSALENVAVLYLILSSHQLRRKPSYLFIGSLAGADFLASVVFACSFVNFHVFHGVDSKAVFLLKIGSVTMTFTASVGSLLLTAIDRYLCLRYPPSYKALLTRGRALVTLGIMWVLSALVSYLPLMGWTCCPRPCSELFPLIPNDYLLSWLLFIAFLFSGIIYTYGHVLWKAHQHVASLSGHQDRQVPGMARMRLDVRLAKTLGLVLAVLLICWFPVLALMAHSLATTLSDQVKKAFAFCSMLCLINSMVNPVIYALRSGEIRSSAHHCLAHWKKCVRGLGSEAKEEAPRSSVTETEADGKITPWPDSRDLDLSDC
The target of series [4] is T1, peroxisome proliferated-activated receptor-γ (PPAR-γ) (Homo sapiens, UniProt P37231).
T1 sequence (P37231 1-505): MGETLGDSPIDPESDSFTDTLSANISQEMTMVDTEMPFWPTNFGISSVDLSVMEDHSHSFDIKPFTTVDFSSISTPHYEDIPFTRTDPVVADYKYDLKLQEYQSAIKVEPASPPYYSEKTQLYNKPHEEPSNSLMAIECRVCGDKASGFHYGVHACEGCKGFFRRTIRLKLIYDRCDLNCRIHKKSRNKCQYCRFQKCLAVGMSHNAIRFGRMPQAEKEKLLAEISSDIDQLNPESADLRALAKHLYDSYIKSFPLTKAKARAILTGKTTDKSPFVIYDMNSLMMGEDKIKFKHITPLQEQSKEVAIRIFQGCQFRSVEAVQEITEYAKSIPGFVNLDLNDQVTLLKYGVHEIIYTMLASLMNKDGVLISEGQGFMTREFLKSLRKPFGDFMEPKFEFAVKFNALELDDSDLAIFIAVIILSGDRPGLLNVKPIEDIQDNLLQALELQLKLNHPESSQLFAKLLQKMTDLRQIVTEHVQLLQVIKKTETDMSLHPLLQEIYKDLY
The note with it: cited from earlier work.

The subject of series [5] is embryogenic fibroblastic 3T3 L1 cells. The note with it: process mediated by PPAR-γ; cited from earlier work.
Another series concerns humans. The note with it: doses up to 80 mg/day, cited from earlier work.
[6] abbreviates: AjA 1 mg/kg/day, BLM-challenged mice.
The mark [7] stands for this setting: AjA 1 mg/kg/day, after treatment.
[8] abbreviates: AjA 10 pM (so in the source), SSc fibroblasts.
[9] abbreviates: listed as (6aR,10aR)-4-(1,1-dimethylheptyl)-Δ8-tetrahydro-cannabinol-9-carboxylic acid.

“Also recorded” adds a separate entry of the source. Like-named read-outs stand apart in the source and are kept apart here. Bounds are passed on as bounds.

With `CCCCCCC(C)(C)c1cc(O)c2c(c1)OC(C)(C)[C@@H]1CC=C(C(=O)O)C[C@@H]21` [AjA, (6aR,10aR)-3-(1,1-dimethylheptyl)-6a,7,10,10a-tetrahydro-1-hydroxy-6,6-dimethyl-6H-Dibenz o(b,d)pyran-9-carboxylic acid], in series [1] (AjA 1 mg/kg/day orally, 21 days, BLM-challenged DBA/2J mice), the “dermal thickness of lesional skin” value was “reduced skin thickness nearly to control levels; also recorded: dermal thickness was equal to control group”. Further, the “hydroxyproline content of lesional skin (collagen deposition)” value in [1] (AjA 1 mg/kg/day, 21 days, BLM-challenged mice) is listed as “completely abrogated the collagen deposition induced by BLM; also recorded: dermal thickness was equal to control group”. For the same compound, in [1] (setting [6]), the “alpha-SMA positive cells, immunohistochemistry” value is recorded as “strong downregulation of alpha-SMA positive cells”; the “leukocyte infiltration, ECM accumulation and fat layer replacement in lesional skin (histology)” value is “the subcutaneous leukocyte infiltration, the accumulation of ECM and the fat layer replacement were reduced; also recorded: strongly reduced the leukocyte infiltration”; the “reduction of number of myofibroblasts (α-SMA positive spindle-shaped fibroblastic cells) in lesional skin” value is “up to 26%”. Besides, in series [1] (setting [7]), the “body weight, BLM/AjA group vs BLM group” value is “did not differ in terms of body weight” and the “signs of toxicity (ruffled fur, reduced activity)” value was “no other signs of toxicity”. The “supernatant PIP levels, dose dependence” value in the series on SSc fibroblasts (AjA 0.1, 1, 5 and 10 μM, 24 hours, SSc fibroblasts) is reported as “dose-dependently decreased the levels of PIP; also recorded: dose-dependent reduction of supernatant PIP levels”. The inhibition (commonly the percentage by which the read-out fell short of the control) at 10 µM in the series on SSc fibroblasts (Homo sapiens, Fibroblast, AjA 10 μM, 24 hours, SSc fibroblasts supernatant, read-out: mean PIP reduction (maximal inhibition)) is at most 60%. For the same compound, the “metabolic activity measured by the MTT assay” value in [2] is recorded as “not affected”. Moreover, the “PPAR-γ protein expression in SSc fibroblasts” value with PPAR-γ is “completely restored the expression of PPAR-γ”. Moreover, in the series on 15d-PGJ2, the “levels of 15d-PGJ2 in supernatants of SSc fibroblasts” value is “strongly increased the levels of 15d-PGJ2 in dose-dependent manner”. For the same compound, in the series with TGF-beta (setting [8]), the “duration of significant TGF-beta downregulation” value was at most 24 h and the “time of maximum TGF-beta inhibition” value came out at 2 h. The “supernatant TGF-beta” value in the series with TGF-beta (AjA 5 and 10 microM, SSc fibroblasts) was “significant reduction of supernatant TGF-beta”. For the same compound, the “time of maximum TGF-beta suppression” value with TGF-beta (SSc fibroblasts, AjA) is 2 h. Moreover, in the series on TGF-beta (incubation with AjA, dose-dependent), the “reduction in TGF-beta concentrations in supernatants from SSc fibroblasts” value is reported as “up to 50%”. In addition, the “lung fibrosis (histology)” value in series [3] (AjA 1 and 5 mg/kg qd x 21 d, bleomycin) is “fibrosis was significantly inhibited”. Further, the “parenchymal infiltration of leukocytes in lung” value in [3] (AjA qd x 21 d, more evident in the 5 mg/kg group) was “parenchymal infiltration of leukocytes was reduced”. Moreover, the “affinity for CB1 receptor” value at CB1 receptor was “weak ligand”. In addition, the “affinity for CB1 receptor” value at CB1 receptor (setting [9]) is given as “high affinity”. Also, the “affinity for CB2 receptor” value at CB2 receptor is reported as “weak ligand”. Moreover, at CB2 receptor (setting [9]), the “affinity for CB2 receptor” value is on record as “high affinity”. In addition, the “binding to and activation of PPAR-γ” value in series [4] was “binds to and activates”. For the same compound, the “differentiation of 3T3 L1 cells into adipocytes” value in series [5] is reported as “stimulates the differentiation of embryogenic fibroblastic 3T3 L1 cells into adipocytes”. For the same compound, in the series with humans (without significant psychotropic effects), the tolerability in humans entry is “well tolerated”. The “chronic neuropathic pain in humans” value with humans is “can reduce chronic neuropathic pain”.

As to `O=C(Nc1ccccc1)c1cc([N+](=O)[O-])ccc1Cl` [GW9662, reference compound], the “reversal of AjA inhibitory effect on PIP/collagen production by PPAR-γ antagonist” value is given as “completely reverted” in the series with SSc fibroblasts (SSc fibroblasts) and “completely prevented the anti-fibrotic effects of AjA” in the series on SSc fibroblasts (SSc fibroblasts, listed as GW966). The “prevention of AjA inhibitory effect on collagen production by PPAR-γ antagonist, dose dependence” value in the series on SSc fibroblasts (antagonist 1-10 μM pre-incubation) is listed as “prevented by GW9662 in a dose-dependent manner”.
